This is an account of results in ChEMBL document CHEMBL3507680, “University of Dundee, Gates Library screen for HepG2 cell viability”.

This data set is described as follows: Human HepG2 cell viability assay in 384 well format. Type of data set: toxicity, cell-based. Set-up: dose 125 nL, time 70.5 hour; concentration not given beside the values. To be noted: HepG2 cells, read-out: Inhibition.

Consider `O=C(NCCCn1nc2ccccn2c1=O)NCc1ccccc1`, for which the cytotoxicity at 70.5 h was -0.996%.

Consider `Cc1csc(N2CCCN(C(=O)CCNc3ncccn3)CC2)n1`, for which the cytotoxicity at 70.5 h is -0.695%.

For the compound `CCCS(=O)(=O)NC(C)C(=O)NCc1ccc(N2CCN(C)CC2)nc1` (stereo not drawn), the cytotoxicity at 70.5 h was -2.17%.

As to `Cc1ccn2ncc(C(=O)N3CCCC(n4cccn4)C3)c2n1` (stereo not drawn), the cytotoxicity at 70.5 h is -0.891%.

On to `COCCOc1cc(C)ccc1NC(=O)N(C)Cc1cnn(C)c1`, for which the cytotoxicity at 70.5 h is -13.2%.

On to `COc1ccccc1CC(=O)N1CCCC1Cn1nc(C)cc1C` (stereo not drawn), for which the cytotoxicity at 70.5 h was -2.44%.

For `CC(C)C(=O)NCc1ccc(N2CCCC2)nc1`, the cytotoxicity at 70.5 h was -3.37%.

For the compound `Cc1cccc(C)c1OCC(=O)N1CCOCC1c1ncon1` (stereo not drawn), the cytotoxicity at 70.5 h is -2.55%.

Turning to `Cc1ccc(OCCC(=O)N2CCOCC2c2ncon2)cc1C` (stereo not drawn), the cytotoxicity at 70.5 h is -7.26%.

On to `CC(C)c1nc(CN2CCCC(Cn3cncn3)C2)cs1` (stereo not drawn), for which the cytotoxicity at 70.5 h turned out to be 29.1%.

With `Cn1cc(C2CCCN2CCC(=O)N2CCc3sccc3C2)cn1` (stereo not drawn), the cytotoxicity at 70.5 h was -4.52%.

As to `C1CCCN(CC2CCCN(Cc3noc(C4CC4)n3)C2)CC1` (stereo not drawn), the cytotoxicity at 70.5 h was 0.15%.

For `C1CCCN(C2CCCN(Cc3noc(C4CC4)n3)C2)CC1` (stereo not drawn), the cytotoxicity at 70.5 h is -1.66%.

Consider `O=C(CCN1CCCC1c1cccc(F)c1)N1CCc2sccc2C1` (stereo not drawn), for which the cytotoxicity at 70.5 h was determined as 0.336%.

Take `Cc1ccccc1OCC(=O)N1CCN(C2CCOC2=O)CC1` (stereo not drawn): the cytotoxicity at 70.5 h came to 0.726%.

Take `CCn1nc2c(cc1=O)CN(Cc1coc(-c3ccccc3)n1)CC2`: the cytotoxicity at 70.5 h is -3.27%.

On to `COCCOc1ncccc1C(=O)N1CCCCC1c1nccs1` (stereo not drawn), for which the cytotoxicity at 70.5 h is -3.02%.

Take `COCCOc1cccc(C(=O)N2CCCCC2c2nccs2)c1` (stereo not drawn): the cytotoxicity at 70.5 h was -3.68%.

For the compound `O=C(NCCNc1ncccn1)N1CCCC1`, the cytotoxicity at 70.5 h is -0.644%.

As to `O=C1OCCC1N1CCN(C(=O)Cc2ccccc2Cl)CC1` (stereo not drawn), the cytotoxicity at 70.5 h is -0.257%.

For the compound `O=C(NCCOCC(F)(F)F)c1ccc(-c2ccccc2)[nH]c1=O`, the cytotoxicity at 70.5 h was -7.3%.

As for `Cc1cc(C2CCCN2CCC(=O)N2CCc3sccc3C2)no1` (stereo not drawn), the cytotoxicity at 70.5 h came out at 1.59%.

For `COCc1ccc(CNCc2c(C)nn(C)c2N(C)C)cc1`, the cytotoxicity at 70.5 h stood at 24.1%.

`Cn1nc2c(cc1=O)CN(Cc1coc(-c3ccccc3)n1)CC2`: the cytotoxicity at 70.5 h stood at 0.822%.

As for `Cc1csc(C2CCCCN2C(=O)c2cc(Cl)c[nH]2)n1` (stereo not drawn), the cytotoxicity at 70.5 h was -0.326%.

Consider `CC(C)(C)OC(=O)NCCNC(=O)c1ccc(-c2ccco2)[nH]c1=O`, for which the cytotoxicity at 70.5 h was -0.98%.

For `O=C(c1ccc2c(c1)OCCCO2)N1CCCC(n2cccn2)C1` (stereo not drawn), the cytotoxicity at 70.5 h amounted to 0.26%.

`CCc1nc2n(n1)CC(NCc1nnc(C(C)C)o1)CC2` (stereo not drawn): the cytotoxicity at 70.5 h was 19.3%.

On to `CC(NC(=O)CCOc1cccc(F)c1)c1nnc2n1CCC2` (stereo not drawn), for which the cytotoxicity at 70.5 h is -2.58%.

`CC(NC(=O)Nc1cccnc1N1CCCC1)c1ccncc1` (stereo not drawn): the cytotoxicity at 70.5 h amounted to 0.728%.

For `N#Cc1cccc(CNC(=O)Nc2cccnc2N2CCCC2)c1`, the cytotoxicity at 70.5 h was -1.72%.

Regarding `COc1ncccc1CNC(=O)Nc1cccnc1N1CCCC1`, the cytotoxicity at 70.5 h worked out at 5.6%.

In the case of `COc1cccc(CNc2cnn(C)c(=O)c2Cl)c1`, the cytotoxicity at 70.5 h was 3.02%.

Take `O=C(c1cc(Cl)c2c(c1)OCO2)N1CCCC(n2ccnc2)C1` (stereo not drawn): the cytotoxicity at 70.5 h was -8.93%.

In the case of `CCc1noc(C(C)N2CCN(Cc3nnc(C4CC4)o3)CC2)n1` (stereo not drawn), the cytotoxicity at 70.5 h was -14.9%.

As for `Cc1nc(C)n(CC2CN(CCOCC(F)(F)F)CCO2)n1` (stereo not drawn), the cytotoxicity at 70.5 h is -17.5%.

On to `Cc1cc(NC(=O)CN2CCCC2c2noc(C(C)C)n2)n(C)n1` (stereo not drawn), for which the cytotoxicity at 70.5 h is -7.61%.

Regarding `c1ccc(-c2nc(CN3CCCC(Cn4cncn4)C3)co2)cc1` (stereo not drawn), the cytotoxicity at 70.5 h amounted to 17.2%.

`Cc1cnn(CCNCc2ccccc2Oc2cccnc2)c1`: the cytotoxicity at 70.5 h was 28.3%.

With `Cc1cc(NC(=O)NCc2cccnc2OC(C)C)n(C)n1`, the cytotoxicity at 70.5 h was -6.35%.

With `CCN(Cc1nc2c(cnn2C)c(=O)[nH]1)c1ccc(OC)c(OC)c1`, the cytotoxicity at 70.5 h is -7.15%.

Turning to `Cc1nc(CNC(C)c2ccc(OCC(=O)NC3CC3)cc2)cs1` (stereo not drawn), the cytotoxicity at 70.5 h was 3.83%.

On to `CC(NCc1ccc(F)cc1)c1ccc(OCC(=O)NC2CC2)cc1` (stereo not drawn), for which the cytotoxicity at 70.5 h worked out at 25.6%.

Take `COc1ccc(CN(C)Cc2nc3c(cnn3C)c(=O)[nH]2)cc1OC`: the cytotoxicity at 70.5 h was -6.1%.

Turning to `Cc1cc(NC(=O)NCc2ccccn2)n(C)n1`, the cytotoxicity at 70.5 h was -6.19%.

On to `CC(Cc1c(F)cccc1F)NC(=O)Nc1cnn(CC(N)=O)c1` (stereo not drawn), for which the cytotoxicity at 70.5 h was -3.56%.

In the case of `O=C(Cc1ccccc1)N1CCN(Cc2noc(C3CC3)n2)CC1`, the cytotoxicity at 70.5 h was -1.85%.

In the case of `Cc1nnc2n1CCN(C(=O)COCCOc1ccccc1)C2`, the cytotoxicity at 70.5 h is -1.96%.

`Cc1cnn(CC(C)NCc2ccc(OCc3ccncc3)cc2)c1` (stereo not drawn): the cytotoxicity at 70.5 h is 30.2%.

With `CCN1CCC(NC(=O)CN2CCCC2Cn2cncn2)CC1` (stereo not drawn), the cytotoxicity at 70.5 h was -2.95%.

For `Cc1cnn(CC2CCCCN2CC(=O)Nc2c(C)n[nH]c2C)c1` (stereo not drawn), the cytotoxicity at 70.5 h is -5.21%.

In the case of `COc1ccc(C(=O)N2CCC(Nc3ccc(C)nn3)CC2)c(F)c1`, the cytotoxicity at 70.5 h is -6.97%.

As for `c1ccc(-n2cc(CN3CCCC(Cn4cncn4)C3)nn2)cc1` (stereo not drawn), the cytotoxicity at 70.5 h is -7.1%.

With `Cc1cc(C(=O)N2CCc3nnc(N)cc3C2)c(C)n1C1CC1`, the cytotoxicity at 70.5 h was -12.1%.

With `O=C(O)c1cc(S(=O)(=O)Nc2ccc(Cl)cc2)cc2c1OCCO2`, the cytotoxicity at 70.5 h was -10.1%.

`Cc1nc(C)n(CC2CN(c3ncnc4[nH]ccc34)CCO2)n1` (stereo not drawn): the cytotoxicity at 70.5 h was determined as 1.75%.

As to `Cc1ncccc1CNCC1CCN(CC(O)c2ccccc2)CC1` (stereo not drawn), the cytotoxicity at 70.5 h is -1.3%.

Take `Cc1nc(C2CCCN(C(=O)c3ccco3)C2)no1` (stereo not drawn): the cytotoxicity at 70.5 h is 24%.

Turning to `Cc1cc(C(=O)N2CCc3nnc(N(C)C)cc3C2)c(C)n1C1CC1`, the cytotoxicity at 70.5 h is -3.63%.

Take `CC(C)(C)OC(=O)N1CCN(C(=O)c2sccc2C2CC2)CC1`: the cytotoxicity at 70.5 h was -10%.

As for `CSc1ccsc1C(=O)N1CCN(CC(C)(C)O)CC1`, the cytotoxicity at 70.5 h is -0.902%.

Consider `Cc1cnn(CC(C)NCc2csc(-c3cnn(C)c3)n2)c1` (stereo not drawn), for which the cytotoxicity at 70.5 h turned out to be 51.9%.

In the case of `COC(=O)C(c1cc(F)ccc1F)N(C)C(=O)c1csnn1` (stereo not drawn), the cytotoxicity at 70.5 h was determined as 7.84%.

As to `COC(=O)N1CCCN(C(=O)NCc2ccc(Cl)s2)CC1`, the cytotoxicity at 70.5 h was found to be 10.1%.

Regarding `CCn1cnnc1CNC(=O)c1cc(Cl)ccc1OC`, the cytotoxicity at 70.5 h was -4.87%.

As for `CCc1cccc(N2CCC(NC(=O)c3ccc(=O)[nH]n3)CC2)c1`, the cytotoxicity at 70.5 h was -0.843%.

In the case of `COCc1nc(C(=O)N2CCCC2c2ccccc2C)cs1` (stereo not drawn), the cytotoxicity at 70.5 h is -1.48%.

With `Cc1ccoc1C(=O)NC1CCN(Cc2cccc3c2OCCO3)CC1`, the cytotoxicity at 70.5 h was found to be 6.48%.

For the compound `COc1ccc(Br)c(C(=O)N2CCC(c3n[nH]c(C4CC4)n3)CC2)c1`, the cytotoxicity at 70.5 h was 3.76%.

`O=C(CCCNc1ncccn1)N1CCCC(n2cccn2)C1` (stereo not drawn): the cytotoxicity at 70.5 h was 34.1%.

As for `COCCN1CCC(CNC(=O)C2(c3cccc(C)c3)CC2)CC1`, the cytotoxicity at 70.5 h is -4.42%.

Regarding `CCC(=O)NC1CCN(c2cccc(CC)c2)CC1`, the cytotoxicity at 70.5 h was found to be 38.9%.

For the compound `COc1ccc(CCNCc2c(C)nn(C)c2N(C)C)cc1OC`, the cytotoxicity at 70.5 h was -1.22%.
